Assay results published in PMC9718554, “Discovery of a fragment hit compound targeting D-Ala:D-Ala ligase of bacterial peptidoglycan biosynthesis” (Journal of Enzyme Inhibition and Medicinal Chemistry, 2022).
Read-outs that look alike come from different tables or passages of the source.

Target: T1, E. coli DdlB enzyme (D-alanine:D-alanine ligase) (Escherichia coli, UniProt P07862)
T1 construct: made in house; host or cells: E. coli
Test: biochemical
Settings: read-out: DdlB RA; for remaining activity at 1700 µM: tested concentration 1.7 mM; for remaining activity at 1900 µM: tested concentration 1.9 mM; for remaining activity at 2400 µM: tested concentration 2.4 mM; for remaining activity at 2300 µM: tested concentration 2.3 mM; for remaining activity at 3100 µM: tested concentration 3.1 mM; for remaining activity at 2600 µM: tested concentration 2.6 mM; for remaining activity at 3200 µM: tested concentration 3.2 mM; for remaining activity at 2700 µM: tested concentration 2.7 mM; for remaining activity at 2800 µM: tested concentration 2.8 mM; for remaining activity at 2200 µM: tested concentration 2.2 mM; for remaining activity at 3500 µM: tested concentration 3.5 mM; for remaining activity at 2500 µM: tested concentration 2.5 mM; for remaining activity at 2000 µM: tested concentration 2.0 mM; for remaining activity at 1800 µM: tested concentration 1.8 mM; for remaining activity at 3900 µM: tested concentration 3.9 mM; for remaining activity at 5000 µM: tested concentration 5.0 mM
Description: The fragment library was assayed in a DdlB inhibition assay, where fragments were tested for their ability to inhibit the D-Ala-adding activity of DdlB ligase. The orthophosphate formed during the enzymatic reaction was measured spectrophotometrically using malachite green reagent.
A recombinant E. coli DdlB enzyme (D-alanine:D-alanine ligase) was expressed in E. coli[11]. […] The final DMSO concentration was 5%. […] All experiments were performed in duplicates. […] IC50 values were determined by measuring the residual activities in quadruplicate at seven different compound concentrations and calculated using in GraphPad Prism (GraphPad Software, San Diego, CA, USA).

[1] = residual activity of DdlB, fragment library screening

NS(=O)(=O)c1ccc(NC(=O)CCn2cnnn2)cc1 [Compound 8017-4431]
remaining activity at 1700 µM: 99%

O=C(O)c1cccc2c1C(=O)N(Cc1ccncc1)C2 [Compound 8017-6147]
remaining activity at 1900 µM (fragment library screening): 90%

CC1=NN(C(C#N)c2cn(C)nc2C)C(C)(C)C1 (stereo not drawn) [Compound 8017-8222]
remaining activity at 2400 µM: 105%

COc1cc(OC)c2cc(C(=O)O)[nH]c2c1 [Compound 8017-9359]
remaining activity at 2300 µM (residual activity): 104%

Oc1cc(-c2cccnc2)n[nH]1 [Compound 8018-0078]
remaining activity at 3100 µM: 91%

N#CCc1nnc(-c2cccc(Cl)c2)[nH]1 [Compound 8018-3009]
remaining activity at 2300 µM (residual activity): 93%

CC(C)(C)OC(=O)n1c(B(O)O)cc2ccccc21 [Compound 8018-6383]
remaining activity at 1900 µM: 75%

Oc1nonc1NCc1ccccc1 [Compound 8018-6481]
remaining activity at 2600 µM: 102%

OB(O)c1ccn[nH]1 [Compound 8018-7072]
remaining activity at 4500 µM (tested concentration 4.5 mM): 87%

Oc1nonc1N1CCOCC1 [Compound 8018-8552]
remaining activity at 2900 µM (tested concentration 2.9 mM): 92%

Oc1nonc1N1CCCC1 [Compound 8018-8553]
remaining activity at 3200 µM: 116%

O=C(O)c1cnn(-c2ccccn2)c1 [Compound 8018-8592]
remaining activity at 2700 µM: 94%

Cc1noc(-c2cccnc2Cl)n1 [Compound 8018-8637]
remaining activity at 2800 µM: 96%

O=S(=O)(O)c1nnc(-c2ccccc2)o1 [Compound 8018-8658]
remaining activity at 2200 µM: 98%

O=C(O)c1cc(CO)on1 [Compound 8018-8667]
remaining activity at 3500 µM: 99%

NS(=O)(=O)c1ccc2c(c1)CCN2 [Compound 8018-8673]
remaining activity at 2500 µM: 80%

Cc1[nH]c(N)c(C#N)c1C [Compound 8018-8696]
remaining activity at 4400 µM (residual activity of DdlB, fragment library screening, tested concentration 4.4 mM): 98%

Nc1ccc2c(c1)[C@@H](O)C[C@@H](C(F)(F)F)O2 [Compound 8018-8746]
remaining activity at 2600 µM: 98%

N#CCc1nnn[nH]1 [Compound 8018-8768]
remaining activity at 5500 µM (residual activity of DdlB, fragment library screening, tested concentration 5.5 mM): 97%

CCc1c(C)nn(-c2nnn[nH]2)c1O [Compound 8019-0165]
remaining activity at 2600 µM: 76%

CC1(C)CC(O)(c2cc(C(=O)O)no2)CCO1 (stereo not drawn) [Compound 8019-4352]
remaining activity at 2500 µM: 72%

Cc1nc2ccc(Br)cn2c1C(=O)O [Compound 8019-4469]
remaining activity at 2000 µM (residual activity): 94%

N#Cc1oc2ccccc2c1N [Compound 8019-4478]
remaining activity at 3500 µM [1]: 85%

CC(c1c[nH]c2ccccc12)C(O)C(=O)O (stereo not drawn) [Compound 8019-4518]
remaining activity at 2300 µM (residual activity): 100%

COc1nonc1O [Compound 8019-4549]
remaining activity at 4300 µM (tested concentration 4.3 mM): 93%

N#CC1(N2CCOCC2)CCCC1 [Compound 8019-5695]
remaining activity at 2800 µM [1]: 105%

COc1ccccc1Nc1ncccc1C(=O)O [Compound 8019-5848]
remaining activity at 2000 µM (residual activity): 99%

Cc1nc2c(C)cccn2c1C(=O)O [Compound 8019-6472]
remaining activity at 2600 µM: 93%

O=S(=O)(O)c1nc2ccccc2n1Cc1ccccc1 [Compound 8019-7098]
remaining activity at 1700 µM: 102%

O=C(O)c1cc(S(=O)(=O)N2CCCC2)ccc1O [Compound 8019-7119]
remaining activity at 1800 µM (residual activity): 97%

O=C(O)CCc1cc(=O)[nH]o1 [Compound 8019-7777]
remaining activity at 3200 µM: 91%

O=C(O)Cc1n[nH]c(-c2ccncc2)n1 [Compound 8019-7883]
remaining activity at 2500 µM: 97%

O=C(O)c1ccccc1-c1ncc[nH]1 [Compound 8019-7907]
remaining activity at 2700 µM: 102%

Cc1cc(C)c2ccc(C(=O)O)cc2n1 [Compound 8019-7912]
remaining activity at 2500 µM: 88%

O=C(O)C1CCN(c2nc3cc(Cl)ccc3o2)CC1 [Compound 8019-8559]
remaining activity at 1800 µM (fragment library screening): 93%

Cn1ccnc1S(=O)(=O)O [Compound 8019-8648]
remaining activity at 3100 µM: 92%

Cn1nnc(-c2ccc(C(=O)O)c(N)c2)n1 [Compound 8019-8673]
remaining activity at 2300 µM (residual activity): 115%

O=C(Cc1n[nH]c(-c2cccnc2)n1)NCC1CCCO1 (stereo not drawn) [Compound 8019-9738]
remaining activity at 1700 µM (residual activity): 94%

N#Cc1cccc2[nH]ccc12 [Compound 8019-9980]
remaining activity at 4200 µM: 101%

COc1cccc2c(O)c(C(=O)O)cnc12 [Compound 8019-9999]
remaining activity at 2300 µM (residual activity): 78%

CC(=O)Nc1cc(-n2cnnc2)ccc1C(=O)O [Compound 8020-0076]
remaining activity at 2000 µM (residual activity): 97%

O=C(O)CCCC1C(=O)Nc2ccccc21 (stereo not drawn) [Compound 8020-0144]
remaining activity at 2300 µM: 93%

OC12CC3CC(C1)CC(NCc1cccnc1)(C3)C2 [Compound 8020-0633]
remaining activity at 1800 µM: 92%

Cc1nnc(-c2ccc(C(=O)O)c(N)c2)o1 [Compound 8020-0732]
remaining activity at 2300 µM (residual activity): 114%

O=C(Cc1nc(-c2ccccn2)n[nH]1)NCC1CCCO1 (stereo not drawn) [Compound 8020-1329F]
remaining activity at 1700 µM (residual activity): 104%

O=C(O)Cc1nc(-c2cnccn2)n[nH]1 [Compound 8020-1590]
remaining activity at 2400 µM: 102%

O=C(O)c1cccnc1NCc1ccc(F)cc1 [Compound 8020-1800]
remaining activity at 2000 µM (residual activity): 102%

Nc1ccc2ncc(C(=O)O)c(O)c2c1 [Compound 8020-1815]
remaining activity at 2500 µM: 42%

OCc1noc(C2CC2)n1 [Compound 8020-1925]
remaining activity at 3900 µM [1]: 98%

O=C1CC(c2ccccc2)c2snc(C(=O)O)c2N1 (stereo not drawn) [Compound 8020-2209]
remaining activity at 1800 µM (residual activity): 94%

O=C(O)c1cnc(-c2ccc(F)cc2)[nH]c1=O [Compound 8020-2279]
remaining activity at 2100 µM (residual activity, tested concentration 2.1 mM): 94%

COc1cccc(F)c1B(O)O [Compound 8020-2294]
remaining activity at 2900 µM: 97%

Nc1c(C(=O)O)cnc2ccc(F)cc12 [Compound 8020-2302]
remaining activity at 2400 µM: 93%

O=C(O)CCc1cn2cccnc2n1 [Compound 8020-2316]
remaining activity at 2600 µM: 94%

O=C(O)c1[nH]c2ccc(F)cc2c1Br [Compound 8020-2406]
remaining activity at 1900 µM (residual activity): 89%

O=C(O)c1cc(O)no1 [Compound 8020-2787]
remaining activity at 3900 µM: 92%

N#CC1CC(c2cccc(Cl)c2)=NO1 (stereo not drawn) [Compound 8020-2797]
remaining activity at 2900 µM (tested concentration 2.9 mM): 107%

COc1cccc(-c2ncc(C(=O)O)c(=O)[nH]2)c1 [Compound 8020-2801]
remaining activity at 2000 µM (residual activity): 92%

CCc1ccc(S(N)(=O)=O)cc1N [Compound 8020-2865]
remaining activity at 2500 µM: 97%

O=C(O)c1ncoc1-c1ccc2c(c1)OCCO2 [Compound 8020-3638]
remaining activity at 2000 µM (residual activity): 62%

O=C(O)c1cnc(-c2cccnc2)[nH]c1=O [Compound 8020-5063]
remaining activity at 2300 µM (residual activity): 94%

O=C1CC(c2cccc(O)c2)c2snc(C(=O)O)c2N1 (stereo not drawn) [Compound 8020-5288]
remaining activity at 1700 µM (residual activity): 114%

O=C(O)c1cnc(-c2ccc(F)cc2)nc1 [Compound 8020-5433]
remaining activity at 2300 µM: 81%

Brc1ccc(-c2nc[nH]n2)cc1 [Compound 8020-5438]
remaining activity at 2200 µM (residual activity): 88%

O=C(O)Cc1nc(-c2cncc(Br)c2)n[nH]1 [Compound 8020-5455]
remaining activity at 1800 µM (residual activity): 94%

OC1CCCc2[nH]nc(-c3ccccc3)c21 (stereo not drawn) [Compound 8020-5457]
remaining activity at 2300 µM: 96%

O=C1C=C(O)CO1 [Compound 8020-5738]
remaining activity at 5000 µM: 98%

Nc1n[nH]c(-c2ccccc2C(=O)O)n1 [Compound 8020-6003]
remaining activity at 2500 µM: 98%

O=S(=O)(O)c1nnc(-c2ccncc2)[nH]1 [Compound 8020-6014]
remaining activity at 2200 µM: 80%

Cn1c(-c2ccco2)nnc1S(=O)(=O)O [Compound 8020-6142]
remaining activity at 2200 µM: 90%

N#Cc1c2c([nH]c(=O)c1C(=O)O)CCCCCC2 [Compound 8020-6316]
remaining activity at 2000 µM: 91%

CCc1c(C)[nH]c(=O)c(C(=O)O)c1C(N)=O [Compound 8020-6319]
remaining activity at 2200 µM (residual activity): 72%

Cn1nccc1-c1cccc(B(O)O)c1 [Compound 8020-6599]
remaining activity at 2500 µM: 93%

COc1cc(C#N)cc2[nH]c(=O)oc12 [Compound 8020-7090]
remaining activity at 2600 µM: 97%

O=c1[nH]c2ccc(O)cc2o1 [Compound 8020-7157]
remaining activity at 3300 µM (tested concentration 3.3 mM): 96%

O=S(=O)(O)c1ccc2[nH]nnc2c1 [Compound 8020-8129]
remaining activity at 2500 µM: 93%

Nc1cc(=O)[nH]o1 [Compound 8020-8247]
remaining activity at 5000 µM: 97%

Cc1ccc(C(C)C)cc1S(=O)(=O)O [Compound 8020-8310]
remaining activity at 2300 µM: 91%
